Experimental data as given in US20100143890A1 (priority 2008, published 2010).

Tested on: AI virus proteins (3425P and 3427P, ProSci Inc.); H5 protein
Assay type: binding, avian influenza virus

SMILES	binding properties compared with commercially available antibody
CC(=O)N[C@H]1[C@H]([C@H](O)[C@H](O)CO)O[C@@](O[C@H]2[C@@H](O)[C@@H](CO)O[C@@H](O[C@H]3[C@H](O)[C@@H](O)C(O)O[C@@H]3CO)[C@@H]2O)(C(=O)O)C[C@@H]1O (some centres unmarked) [3-silaiic-lactose]	not active
CC(=O)NC1C(O)CC(OCC2OC(OC3C(CO)OC(O)C(O)C3O)C(O)C(O)C2O)(C(=O)O)OC1C(O)C(O)CO (centres unmarked) [6′-sialic lactose]	not active
